In PubChem BioAssay (NCI):
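Test compounds were applied to cells in 96-well plates for 48 hours at 5 doses. TGI denotes the concentration required for complete inhibition of growth.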

Tests used:
Experiment in all cases: inhibition of tumour cell growth, NCI panel, 48 h
TK-10 renal = tested on: TK-10 renal
OVCAR-4 ovarian = tested on: OVCAR-4 ovarian
T-47D breast = tested on: T-47D breast
SF-539 CNS = tested on: SF-539 CNS
MDA-MB-435 = tested on: MDA-MB-435
CCRF-CEM leukemia = tested on: CCRF-CEM leukemia
NCI-H23 lung = tested on: NCI-H23 lung
SF-268 CNS = tested on: SF-268 CNS
A549 NSCLC = tested on: A549 NSCLC
NCI-H226 lung = tested on: NCI-H226 lung
ACHN renal = tested on: ACHN renal
NCI/ADR-RES ovarian = tested on: NCI/ADR-RES ovarian
HCT-116 colon = tested on: HCT-116 colon
SN12C renal = tested on: SN12C renal
SR leukemia = tested on: SR leukemia
UACC-62 melanoma = tested on: UACC-62 melanoma
SK-MEL-2 melanoma = tested on: SK-MEL-2 melanoma
OVCAR-8 ovarian = tested on: OVCAR-8 ovarian
K-562 leukemia = tested on: K-562 leukemia
RXF 393 renal = tested on: RXF 393 renal
IGROV1 ovarian = tested on: IGROV1 ovarian
LOX IMVI melanoma = tested on: LOX IMVI melanoma
OVCAR-5 ovarian = tested on: OVCAR-5 ovarian
MDA-MB-231 breast = tested on: MDA-MB-231 breast
NCI-H460 lung = tested on: NCI-H460 lung
HOP-62 NSCLC = tested on: HOP-62 NSCLC
SK-MEL-5 melanoma = tested on: SK-MEL-5 melanoma
EKVX NSCLC = tested on: EKVX NSCLC
CAKI-1 renal = tested on: CAKI-1 renal
RPMI-8226 leukemia = tested on: RPMI-8226 leukemia
SW-620 colon = tested on: SW-620 colon
A498 renal = tested on: A498 renal
BT-549 breast = tested on: BT-549 breast
HT29 colon = tested on: HT29 colon
HL-60(TB) leukemia = tested on: HL-60(TB) leukemia
PC-3 prostate = tested on: PC-3 prostate
SNB-19 CNS = tested on: SNB-19 CNS
OVCAR-3 ovarian = tested on: OVCAR-3 ovarian
786-0 renal = tested on: 786-0 renal
COLO 205 colon = tested on: COLO 205 colon
HCT-15 colon = tested on: HCT-15 colon
U251 CNS = tested on: U251 CNS
SK-MEL-28 melanoma = tested on: SK-MEL-28 melanoma
SK-OV-3 ovarian = tested on: SK-OV-3 ovarian
MDA-N = tested on: MDA-N
NCI-H522 lung = tested on: NCI-H522 lung
KM12 colon = tested on: KM12 colon
UO-31 renal = tested on: UO-31 renal
DU-145 prostate = tested on: DU-145 prostate
HS 578T breast = tested on: HS 578T breast
HCC-2998 colon = tested on: HCC-2998 colon
SNB-75 CNS = tested on: SNB-75 CNS
M14 melanoma = tested on: M14 melanoma
MALME-3M melanoma = tested on: MALME-3M melanoma
HOP-92 NSCLC = tested on: HOP-92 NSCLC
SF-295 CNS = tested on: SF-295 CNS
MOLT-4 leukemia = tested on: MOLT-4 leukemia
UACC-257 melanoma = tested on: UACC-257 melanoma
MCF7 breast = tested on: MCF7 breast

Measured: TGI

NC(CSS(=O)(=O)c1ccccc1)C(=O)O (stereo not drawn)
> 10 µM: all assays above

O=C(O)C(Cc1c[nH]c2ccccc12)C(=O)NO (stereo not drawn)
> 100 µM: all assays above
